# Results as given in PubChem BioAssay (NCI).
#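 Here, GI50 denotes the concentration required for 50% inhibition of growth. TGI: concentration producing complete growth inhibition.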
# Tests used:
# Assay in all cases: inhibition of tumour cell growth, NCI panel, 384-well format
# EKVX NSCLC = tested on: EKVX NSCLC
# HCT-116 colon = tested on: HCT-116 colon
# MDA-MB-435 melanoma = tested on: MDA-MB-435 melanoma
# M14 melanoma = tested on: M14 melanoma
# SNB-19 CNS = tested on: SNB-19 CNS
# HS 578T breast = tested on: HS 578T breast
# COLO 205 colon = tested on: COLO 205 colon
# SK-MEL-5 melanoma = tested on: SK-MEL-5 melanoma
# HT29 colon = tested on: HT29 colon
# DU-145 prostate = tested on: DU-145 prostate
# T-47D breast = tested on: T-47D breast
# HL-60(TB) leukemia = tested on: HL-60(TB) leukemia
# HOP-92 NSCLC = tested on: HOP-92 NSCLC
compound,measurement,setting,value
CNC(=O)c1cc(Oc2ccc(NC(=O)Nc3ccc(Cl)c(C(F)(F)F)c3)cc2)ccn1,GI50,EKVX NSCLC,2.9 µM
same,TGI,EKVX NSCLC,6.8 µM
same,GI50,HCT-116 colon,1.65 µM
same,TGI,HCT-116 colon,4.14 µM
same,GI50,MDA-MB-435 melanoma,2.57 µM
same,TGI,MDA-MB-435 melanoma,4.98 µM
same,GI50,M14 melanoma,2.48 µM
same,TGI,M14 melanoma,5.22 µM
same,GI50,SNB-19 CNS,3.33 µM
same,TGI,SNB-19 CNS,8.1 µM
same,GI50,HS 578T breast,1.78 µM
same,TGI,HS 578T breast,3.69 µM
same,GI50,COLO 205 colon,2.19 µM
same,TGI,COLO 205 colon,4.66 µM
same,GI50,SK-MEL-5 melanoma,0.842 µM
same,TGI,SK-MEL-5 melanoma,2.44 µM
same,GI50,HT29 colon,2.35 µM
same,TGI,HT29 colon,5.96 µM
same,GI50,DU-145 prostate,2.69 µM
same,TGI,DU-145 prostate,6.57 µM
same,GI50,T-47D breast,1.94 µM
same,TGI,T-47D breast,5.95 µM
same,GI50,HL-60(TB) leukemia,0.892 µM
same,TGI,HL-60(TB) leukemia,2.04 µM
same,GI50,HOP-92 NSCLC,3 µM
same,TGI,HOP-92 NSCLC,7.6 µM
